From ChEMBL document CHEMBL3272295, “Drugs derived from cannabinoids. 5. delta6a,10a-Tetrahydrocannabinol and heterocyclic analogs containing aromatic side chains” (J Med Chem, 1976)
Active and inactive are the calls of the source. No cut-off for these calls is given here.

Tests used:
Rattus norvegicus [1] = assay: Analgesic activity in po dosed Sprague-Dawley rat after 15 to 90 mins by tail flick test; assay type: functional
Mus musculus [2] = assay: Analgesic activity in po dosed mouse assessed as inhibition of acetic acid-induced writhing administered 30 mins prior to acetic acid challenge measured after 5 mins for 20 mins; assay type: functional
Rattus norvegicus [3] = assay: Antianxiety activity in Long-Evans rat assessed as reduction in motor activity at 5 mg/kg, po after 2 hrs relative to vehicle-treated control; assay type: functional; set-up: scale not given: the % may be the effect or the level left
Rattus norvegicus [4] = assay: Antihypertensive activity in spontaneously hypertensive rat model assessed as reduction in blood pressure at 1 mg/kg, po after 3 hrs; assay type: functional; set-up: scale not given: the % may be the effect or the level left
Rattus norvegicus [5] = assay: Antihypertensive activity in spontaneously hypertensive rat model assessed as reduction in blood pressure at 1 mg/kg, po after 24 hrs; assay type: functional; set-up: scale not given: the % may be the effect or the level left
Rattus norvegicus [6] = assay: Antihypertensive activity in spontaneously hypertensive rat model assessed as reduction in blood pressure at 3 mg/kg, po after 3 hrs; assay type: functional; set-up: scale not given: the % may be the effect or the level left
Rattus norvegicus [7] = assay: Antipsychotic activity in rat assessed as reduction of methamphetamine-induced hyperactivity at 20 mg/kg, po administered prior to methamphetamine challenge relative to vehicle-treated control; assay type: functional; set-up: scale not given: the % may be the effect or the level left
Rattus norvegicus [8] = assay: Antihypertensive activity in spontaneously hypertensive rat model assessed as reduction in blood pressure at 3 mg/kg, po after 24 hrs; assay type: functional; set-up: scale not given: the % may be the effect or the level left
Rattus norvegicus [9] = assay: Antipsychotic activity in rat assessed as reduction of methamphetamine-induced hyperactivity at 10 mg/kg, po administered prior to methamphetamine challenge relative to vehicle-treated control; assay type: functional; set-up: scale not given: the % may be the effect or the level left
Mus musculus [10] = assay: Analgesic activity in mouse assessed as inhibition of acetic acid-induced writhing at 10 mg/kg, po administered 30 mins prior to acetic acid challenge measured after 5 mins for 20 mins; assay type: functional
Mus musculus [11] = assay: Antianxiety activity in albino BALB/cJ mouse assessed as reduction in footshock-induced fighting behavior at 10 mg/kg, po after 30 to 90 mins; assay type: functional; set-up: scale not given: the % may be the effect or the level left
[12] = Acute toxicity in po dosed mouse; assay type: organism-based; settings: in vivo
Felis catus [13] = assay: Hypnotic activity in cat assessed as increase in total sleep time at 0.5 mg/kg administered orally through diet measured for 12 hrs by EEG analysis; assay type: functional; settings: route oral
Mus musculus [14] = assay: Anticonvulsant activity in po dosed mouse assessed as dose required to protect 80% of animal measured after 1 to 4 hrs by audiogenic seizure test; assay type: functional
Rattus norvegicus [15] = assay: Antipsychotic activity in rat assessed as reduction of methamphetamine-induced hyperactivity at 5 mg/kg, po administered prior to methamphetamine challenge relative to vehicle-treated control; assay type: functional; set-up: scale not given: the % may be the effect or the level left
Rhesus monkey = assay: Antianxiety activity in po dosed rhesus monkey assessed as antiagressive behavior measured every hour post dosing; assay type: functional; settings: Macaca mulatta, read-out: MED
Canis familiaris = assay: Antianxiety activity in po dosed dog assessed as ataxia administered as single dose measured up to 24 hrs; assay type: functional; settings: Canis lupus familiaris, read-out: MED
Felis catus [16] = assay: Hypnotic activity in cat assessed as increase in non-REM sleep time at 0.5 mg/kg administered orally through diet measured for 12 hrs by EEG analysis; assay type: functional; settings: route oral
Rattus norvegicus [17] = assay: Antipsychotic activity in rat assessed as reduction of methamphetamine-induced hyperactivity at 2 mg/kg, po administered prior to methamphetamine challenge relative to vehicle-treated control; assay type: functional; set-up: scale not given: the % may be the effect or the level left
Rattus norvegicus [18] = assay: Antianxiety activity in Long-Evans rat assessed as reduction in motor activity at 1 mg/kg, po after 2 hrs relative to vehicle-treated control; assay type: functional; set-up: scale not given: the % may be the effect or the level left
Rattus norvegicus [19] = species: Rattus norvegicus; assay: animal or person; assay type: functional; settings: Charles River, route oral
Description: Antidiarrheal activity in Charles River rat assessed as inhibition of castor oil-induced diarrhea by measuring protected animals at 0.5 mg/kg, po administered 1 hr prior to castor oil challenge measured after 1 hr relative to vehicle-treated control

Mus musculus [20] = assay: Antianxiety activity in albino BALB/cJ mouse assessed as reduction in footshock-induced fighting behavior at 5 mg/kg, po after 30 to 90 mins; assay type: functional; set-up: scale not given: the % may be the effect or the level left

**Q.** With `CC(CCCCc1ccc(F)cc1)c1cc(O)c2c(c1)OC(C)(C)C1=C2CN(Cc2ccccc2)CC1` (stereo not drawn) as the compound, how does the Activity (Rattus norvegicus [1]) read?
**A.** The Activity was “inactive”.

**Q.** What about the inhibition (Mus musculus [2]) of the same compound?
**A.** The inhibition was “inactive”.

**Q.** For `CC(CCc1ccc(F)cc1)C(C)c1cc(O)c2c3c(c(=O)oc2c1)CCN(Cc1ccccc1)C3` (stereo not drawn), which Activity (Rattus norvegicus [1]) is on record?
**A.** The Activity was “inactive”.

**Q.** What about the inhibition (Mus musculus [2]) of the same compound?
**A.** The inhibition was “inactive”.

**Q.** With `CC1CCC2=C(C1)c1c(O)cc(C(C)C(C)Cc3ccc(F)cc3)cc1OC2(C)C` (stereo not drawn) as the compound, how does the Activity (Rattus norvegicus [3]) read?
**A.** Its Activity is 66%.

**Q.** What about the Activity (Rattus norvegicus [4]) of the same compound?
**A.** Its Activity is 22%.

**Q.** And the Activity (Rattus norvegicus [5])?
**A.** The Activity was 9%.

**Q.** What about the Activity (Rattus norvegicus [6]) of the same compound?
**A.** The Activity was 21%.

**Q.** What about the Activity (Rattus norvegicus [7]) of the same compound?
**A.** The Activity was 56%.

**Q.** What about the Activity (Rattus norvegicus [8]) of the same compound?
**A.** Its Activity is 24%.

**Q.** And the Activity (Rattus norvegicus [9])?
**A.** The Activity was 28%.

**Q.** What about the inhibition in vivo at 10 mg/kg (Mus musculus [10]) of the same compound?
**A.** Its inhibition in vivo at 10 mg/kg is 38%.

**Q.** And the Activity (Mus musculus [11])?
**A.** The Activity was 4%.

**Q.** And the LD50 [12]?
**A.** The LD50 was at least 1000 mg/kg.

**Q.** What does the source list for `CC(CCCc1ccc(F)cc1)c1cc(O)c2c3c(c(=O)oc2c1)CCC3` (stereo not drawn)?
**A.** Activity (Rattus norvegicus [1]): inactive; inhibition (Mus musculus [2]): inactive

**Q.** Which results are given for `CC1CCC2=C(C1)c1c(O)cc(C(C)CCCc3ccccc3)cc1OC2(C)C` (stereo not drawn)?
**A.** Time (Felis catus [13]): 28 min; Activity (Mus musculus [14]): 30 mg/kg; Activity (Rattus norvegicus [15]): 77%; minimal effective dose (Rhesus monkey): 0.5 mg/kg; minimal effective dose (Canis familiaris): 1 mg/kg; Activity (Rattus norvegicus [3]): 36%; Time (Felis catus [16]): 2 min; Activity (Mus musculus [11]): 77%; LD50 [12]: 750 mg/kg; ED50 (Mus musculus [2]): 17 mg/kg; Activity (Rattus norvegicus [17]): 46%

**Q.** Which results are given for `CC1CCc2c(c3c(O)cc(C(C)C(C)CCc4ccc(F)cc4)cc3oc2=O)C1` (stereo not drawn)?
**A.** Activity (Rattus norvegicus [1]): inactive; inhibition (Mus musculus [2]): inactive

**Q.** For `CCCCCc1cc(O)c2c(c1)OC(C)(C)C1=C2CN(Cc2ccccc2)CC1`, which Activity (Rattus norvegicus [1]) is on record?
**A.** The Activity was “inactive”.

**Q.** What about the inhibition (Mus musculus [2]) of the same compound?
**A.** The inhibition was “inactive”.

**Q.** Which Activity (Rattus norvegicus [1]) does the source give for `CC1CCc2c(c3c(O)cc(C(C)CCCc4ccccc4)cc3oc2=O)C1` (stereo not drawn) here?
**A.** The Activity was “inactive”.

**Q.** What about the inhibition (Mus musculus [2]) of the same compound?
**A.** Its inhibition is “inactive”.

**Q.** Which results are given for `CC(CCCc1ccc(F)cc1)C(C)c1cc(O)c2c(c1)OC(C)(C)C1=C2CNCC1` (stereo not drawn)?
**A.** Activity (Rattus norvegicus [1]): inactive; inhibition (Mus musculus [2]): inactive

**Q.** With `CC(CCCc1ccc(F)cc1)C(C)c1cc(O)c2c(c1)OC(C)(C)C1=C2CN(Cc2ccccc2)CC1` (stereo not drawn) as the compound, how does the Activity (Rattus norvegicus [1]) read?
**A.** The Activity was “inactive”.

**Q.** What about the inhibition (Mus musculus [2]) of the same compound?
**A.** The inhibition was “inactive”.

**Q.** Which Activity (Rattus norvegicus [1]) does the source give for `CC(CCc1ccc(F)cc1)C(C)c1cc(O)c2c(c1)OC(C)(C)C1=C2CN(Cc2ccccc2)CC1` (stereo not drawn) here?
**A.** The Activity was “inactive”.

**Q.** What about the inhibition (Mus musculus [2]) of the same compound?
**A.** The inhibition was “inactive”.

**Q.** With `CC(CCCc1ccc(F)cc1)c1cc(O)c2c3c(c(=O)oc2c1)CCN(Cc1ccccc1)C3` (stereo not drawn) as the compound, how does the Activity (Rattus norvegicus [1]) read?
**A.** The Activity was “inactive”.

**Q.** What about the inhibition (Mus musculus [2]) of the same compound?
**A.** Its inhibition is “inactive”.

**Q.** Which results are given for `CC(CCCc1ccc(F)cc1)c1cc(O)c2c(c1)OC(C)(C)C1=C2CNCC1` (stereo not drawn)?
**A.** Activity (Rattus norvegicus [1]): inactive; inhibition (Mus musculus [2]): inactive

**Q.** Which results are given for `CC1CCC2=C(C1)c1c(O)cc(C(C)CCCCc3ccc(F)cc3)cc1OC2(C)C` (stereo not drawn)?
**A.** Activity (Rattus norvegicus [15]): 65%; Activity (Rattus norvegicus [18]): 40%; Activity (Rattus norvegicus [3]): 73%; Activity (Rattus norvegicus [4]): 7%; inhibition in vivo at 0.5 mg/kg (Rattus norvegicus [19]): 80%; Activity (Mus musculus [20]): 4%; Activity (Rattus norvegicus [5]): 4%; Activity (Rattus norvegicus [6]): 33%; Activity (Rattus norvegicus [8]): 14%; Activity (Rattus norvegicus [9]): 71%; LD50 [12]: 750 mg/kg; ED50 (Mus musculus [2]): 20.5 mg/kg

**Q.** Which results are given for `CC(CCc1ccc(F)cc1)C(C)c1cc(O)c2c(c1)OC(C)(C)C1=C2CNCC1` (stereo not drawn)?
**A.** Activity (Rattus norvegicus [1]): inactive; inhibition (Mus musculus [2]): inactive

**Q.** What does the source list for `CC(CCc1ccc(F)cc1)c1cc(O)c2c3c(c(=O)oc2c1)CCN(Cc1ccccc1)C3` (stereo not drawn)?
**A.** Activity (Rattus norvegicus [1]): inactive; inhibition (Mus musculus [2]): inactive

**Q.** With `CC1CCc2c(c3c(O)cc(C(C)C(C)CCCc4ccc(F)cc4)cc3oc2=O)C1` (stereo not drawn) as the compound, how does the Activity (Rattus norvegicus [1]) read?
**A.** The Activity was “inactive”.

**Q.** And the inhibition (Mus musculus [2])?
**A.** The inhibition was “inactive”.

**Q.** With `CC(CCCCc1ccc(F)cc1)c1cc(O)c2c(c1)OC(C)(C)C1=C2CNCC1` (stereo not drawn) as the compound, how does the Activity (Rattus norvegicus [1]) read?
**A.** Its Activity is “inactive”.

**Q.** What about the inhibition (Mus musculus [2]) of the same compound?
**A.** Its inhibition is “inactive”.

**Q.** With `CC1CCC2=C(C1)c1c(O)cc(CCCCCc3ccc(F)cc3)cc1OC2(C)C` (stereo not drawn) as the compound, how does the Activity (Rattus norvegicus [15]) read?
**A.** The Activity was 39%.

**Q.** What about the Activity (Rattus norvegicus [3]) of the same compound?
**A.** The Activity was 16%.

**Q.** And the Activity (Rattus norvegicus [4])?
**A.** The Activity was 6%.

**Q.** What about the Activity (Mus musculus [20]) of the same compound?
**A.** The Activity was 36%.

**Q.** And the Activity (Rattus norvegicus [5])?
**A.** Its Activity is 9%.

**Q.** And the Activity (Rattus norvegicus [6])?
**A.** Its Activity is 27%.

**Q.** What about the Activity (Rattus norvegicus [8]) of the same compound?
**A.** Its Activity is 17%.

**Q.** What about the inhibition in vivo at 10 mg/kg (Mus musculus [10]) of the same compound?
**A.** The inhibition in vivo at 10 mg/kg was 41%.

**Q.** And the LD50 [12]?
**A.** Its LD50 is at least 1000 mg/kg.

**Q.** What does the source list for `CC1CCc2c(c3c(O)cc(C(C)C(C)CCc4ccncc4)cc3oc2=O)C1` (stereo not drawn)?
**A.** Activity (Rattus norvegicus [1]): inactive; inhibition (Mus musculus [2]): inactive

**Q.** What does the source list for `CC1CCc2c(c3c(O)cc(C(C)CCCN(C)C)cc3oc2=O)C1` (stereo not drawn)?
**A.** Activity (Rattus norvegicus [1]): inactive; inhibition (Mus musculus [2]): inactive

**Q.** Which results are given for `CC1CCc2c(c3c(O)cc(CCCCCc4ccc(F)cc4)cc3oc2=O)C1` (stereo not drawn)?
**A.** Activity (Rattus norvegicus [1]): inactive; inhibition (Mus musculus [2]): inactive
